Assay results from ChEMBL document CHEMBL1201862, “PubChem BioAssay data set” (2004).
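Compound exposure: 48 hours, 5 concentrations, 96-well plates. At the GI50, growth is halved.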 Active and inactive are the calls of the source. No stated cut-off is given here; in the data, active = GI50 up to about 1.1 µM and inactive = higher.

Tests used:
Experiment in all cases: NCI anticancer screen, dose series, 48 h
[1] = tested on: HCC 2998
[2] = tested on: UO-31
[3] = tested on: IGROV-1
[4] = tested on: NCI-H522
[5] = tested on: U-251
[6] = tested on: OVCAR-3
[7] = tested on: OVCAR-8
[8] = tested on: RPMI-8226
[9] = tested on: M14
[10] = tested on: UACC-62
[11] = tested on: ACHN
[12] = tested on: SK-MEL-28
[13] = tested on: NCI-H226
[14] = tested on: KM12
[15] = tested on: SW-620
[16] = tested on: MOLT-4
[17] = tested on: OVCAR-4
[18] = tested on: A549

| SMILES | GI50 [1] | GI50 [2] | GI50 [3] | GI50 [4] | GI50 [5] | GI50 [6] | GI50 [7] | GI50 [8] | GI50 [9] | GI50 [10] | GI50 [11] | GI50 [12] | GI50 [13] | GI50 [14] | GI50 [15] | GI50 [16] | GI50 [17] | GI50 [18] |
| --- | --- | --- | --- | --- | --- | --- | --- | --- | --- | --- | --- | --- | --- | --- | --- | --- | --- | --- |
| CCCCCCCCCCCC[N+]12CC[N+](CCN)(CC1)CC2 | 35 µM (inactive) | > 100 µM (inactive) | 10.8 µM (inactive) | 86.5 µM (inactive) | 34.5 µM (inactive) | > 100 µM (inactive) | > 100 µM (inactive) | 28.2 µM (inactive) | > 100 µM (inactive) | 56.9 µM (inactive) | > 100 µM (inactive) | > 100 µM (inactive) | 63.7 µM (inactive) | 23.7 µM (inactive) | > 100 µM (inactive) | > 100 µM (inactive) | > 100 µM (inactive) | > 100 µM (inactive) |
| CN(C)CCNC(=O)c1ccc(C(=O)NCCN(C)C)c2nc3ccccc3cc12 | 0.9 µM (active) | 4.81 µM (inactive) | 1.62 µM (inactive) | 0.47 µM (active) | 0.533 µM (active) | 1.77 µM (inactive) | 0.571 µM (active) | – | 1.39 µM (inactive) | 1.15 µM (inactive) | 0.637 µM (active) | 1.74 µM (inactive) | 1.16 µM (inactive) | 0.792 µM (active) | 0.361 µM (active) | 0.226 µM (active) | 0.697 µM (active) | 0.45 µM (active) |
| CCCNCC(=O)O[C@]1(CC)C(=O)OCc2c1cc1n(c2=O)Cc2cc3ccccc3nc2-1 | 0.661 µM (active) | 0.0637 µM (active) | 0.325 µM (active) | 0.0271 µM (active) | < 0.01 µM (active) | 0.457 µM (active) | 0.161 µM (active) | 0.0498 µM (active) | 0.0681 µM (active) | < 0.01 µM (active) | < 0.01 µM (active) | 2.31 µM (inactive) | 0.0121 µM (active) | 0.528 µM (active) | – | < 0.01 µM (active) | 0.69 µM (active) | 0.0322 µM (active) |
| NCCCCCS(=O)(=O)O | > 100 µM (inactive) | > 100 µM (inactive) | > 100 µM (inactive) | > 100 µM (inactive) | > 100 µM (inactive) | > 100 µM (inactive) | > 100 µM (inactive) | – | > 100 µM (inactive) | > 100 µM (inactive) | > 100 µM (inactive) | > 100 µM (inactive) | – | > 100 µM (inactive) | > 100 µM (inactive) | > 100 µM (inactive) | > 100 µM (inactive) | > 100 µM (inactive) |
| COc1cc(Cl)cc(O)c(=O)c1OC | 63.4 µM (inactive) | 42.4 µM (inactive) | – | 21.9 µM (inactive) | 40.1 µM (inactive) | 20.1 µM (inactive) | 36.9 µM (inactive) | 15.8 µM (inactive) | 41.8 µM (inactive) | 24.4 µM (inactive) | 37.2 µM (inactive) | 92.7 µM (inactive) | 25.2 µM (inactive) | 72.8 µM (inactive) | – | 15.8 µM (inactive) | 25.7 µM (inactive) | – |
| C/C(CN1C(=O)c2ccccc2C1=O)=N\NS(=O)(=O)c1ccc2ccccc2c1 | > 100 µM (inactive) | > 100 µM (inactive) | > 100 µM (inactive) | 57.7 µM (inactive) | > 100 µM (inactive) | > 100 µM (inactive) | > 100 µM (inactive) | > 100 µM (inactive) | > 100 µM (inactive) | > 100 µM (inactive) | > 100 µM (inactive) | > 100 µM (inactive) | > 100 µM (inactive) | > 100 µM (inactive) | > 100 µM (inactive) | > 100 µM (inactive) | > 100 µM (inactive) | > 100 µM (inactive) |
| Cc1ccc(NCC(=O)N2CC(=O)Nc3ccccc32)cc1 | > 100 µM (inactive) | > 100 µM (inactive) | – | > 100 µM (inactive) | > 100 µM (inactive) | > 100 µM (inactive) | > 100 µM (inactive) | > 100 µM (inactive) | > 100 µM (inactive) | > 100 µM (inactive) | > 100 µM (inactive) | > 100 µM (inactive) | > 100 µM (inactive) | > 100 µM (inactive) | > 100 µM (inactive) | > 100 µM (inactive) | > 100 µM (inactive) | > 100 µM (inactive) |
| Cc1ccc(C2CC(c3ccco3)=NN2c2ccccc2)o1 (configuration not stated) | – | > 100 µM (inactive) | > 100 µM (inactive) | > 100 µM (inactive) | > 100 µM (inactive) | > 100 µM (inactive) | > 100 µM (inactive) | > 100 µM (inactive) | > 100 µM (inactive) | > 100 µM (inactive) | > 100 µM (inactive) | > 100 µM (inactive) | > 100 µM (inactive) | > 100 µM (inactive) | > 100 µM (inactive) | > 100 µM (inactive) | > 100 µM (inactive) | > 100 µM (inactive) |
| Cn1c2ccccc2c(=O)c2c([N+](=O)[O-])ccc(NCCN)c21 | 7.98 µM (inactive) | 5.64 µM (inactive) | 12.3 µM (inactive) | 6.92 µM (inactive) | 12.8 µM (inactive) | 13.8 µM (inactive) | 7.19 µM (inactive) | – | 14 µM (inactive) | 14.9 µM (inactive) | 6.3 µM (inactive) | 15.3 µM (inactive) | 13.7 µM (inactive) | 6.43 µM (inactive) | 4.55 µM (inactive) | 2.06 µM (inactive) | 12.2 µM (inactive) | 11.9 µM (inactive) |
| CCCCN(CCCC)C(=O)C(=O)C(C(=O)C(=O)OC)c1nc2ccccc2o1 (configuration not stated) | > 100 µM (inactive) | > 100 µM (inactive) | 50.8 µM (inactive) | > 100 µM (inactive) | 90.6 µM (inactive) | 78.5 µM (inactive) | > 100 µM (inactive) | – | > 100 µM (inactive) | – | > 100 µM (inactive) | > 100 µM (inactive) | > 100 µM (inactive) | > 100 µM (inactive) | 87.5 µM (inactive) | 29 µM (inactive) | > 100 µM (inactive) | > 100 µM (inactive) |
| Fc1nc(F)nc(-c2c3ccccc3c3n2CCS3)n1 | > 100 µM (inactive) | 84.5 µM (inactive) | > 100 µM (inactive) | 47.2 µM (inactive) | 29 µM (inactive) | > 100 µM (inactive) | – | 33 µM (inactive) | 71.1 µM (inactive) | – | > 100 µM (inactive) | > 100 µM (inactive) | > 100 µM (inactive) | 47 µM (inactive) | > 100 µM (inactive) | > 10 µM (inactive) | 98.9 µM (inactive) | > 100 µM (inactive) |
| C/N=C(\NC(=S)N(C)C)N(C)C | > 100 µM (inactive) | > 100 µM (inactive) | > 100 µM (inactive) | > 100 µM (inactive) | > 100 µM (inactive) | – | > 100 µM (inactive) | > 100 µM (inactive) | > 100 µM (inactive) | > 100 µM (inactive) | > 100 µM (inactive) | > 100 µM (inactive) | 48.5 µM (inactive) | > 100 µM (inactive) | > 100 µM (inactive) | > 100 µM (inactive) | > 100 µM (inactive) | > 100 µM (inactive) |
| O=C1/C(=C/c2ccc(C(=O)O)cc2)CNC/C1=C\c1ccc(C(=O)O)cc1 | > 100 µM (inactive) | > 100 µM (inactive) | > 100 µM (inactive) | – | > 100 µM (inactive) | > 100 µM (inactive) | > 100 µM (inactive) | > 100 µM (inactive) | > 100 µM (inactive) | > 100 µM (inactive) | > 100 µM (inactive) | > 100 µM (inactive) | > 100 µM (inactive) | > 100 µM (inactive) | – | > 100 µM (inactive) | > 100 µM (inactive) | > 100 µM (inactive) |
| O=C1c2ccccc2C2(O)Nc3cc(O)ccc3C12O (configuration not stated) | – | – | > 100 µM (inactive) | > 100 µM (inactive) | > 100 µM (inactive) | > 100 µM (inactive) | > 100 µM (inactive) | > 100 µM (inactive) | > 100 µM (inactive) | > 100 µM (inactive) | > 100 µM (inactive) | > 100 µM (inactive) | > 100 µM (inactive) | > 100 µM (inactive) | > 100 µM (inactive) | > 100 µM (inactive) | > 100 µM (inactive) | > 100 µM (inactive) |
| C1=CC=C2NCCCCCCC/N=C3/C=CC=CC=C3NCCCCCCC/N=C\2C=C1 | > 100 µM (inactive) | > 100 µM (inactive) | 10 µM (inactive) | 52.5 µM (inactive) | 10 µM (inactive) | 10 µM (inactive) | 40.1 µM (inactive) | 35.9 µM (inactive) | 10 µM (inactive) | 10 µM (inactive) | 85.7 µM (inactive) | – | > 100 µM (inactive) | > 100 µM (inactive) | 79.6 µM (inactive) | 31 µM (inactive) | 64.3 µM (inactive) | > 100 µM (inactive) |
| CCCCN(CCCC)CCCCNc1c(C)cnc2cc(Cl)ccc12 | 14.5 µM (inactive) | 9.35 µM (inactive) | – | 15.2 µM (inactive) | 28.6 µM (inactive) | 30.2 µM (inactive) | 49.4 µM (inactive) | – | 1.94 µM (inactive) | – | 24.3 µM (inactive) | 17.2 µM (inactive) | 16.4 µM (inactive) | 36.6 µM (inactive) | 20.9 µM (inactive) | 25.9 µM (inactive) | 49.2 µM (inactive) | 30.9 µM (inactive) |
| CN1CCC(c2c(O)cc(O)c3c(=O)cc(-c4ccccc4Cl)oc23)C(O)C1 (configuration not stated) | 0.165 µM (active) | 0.0303 µM (active) | 0.0735 µM (active) | 0.136 µM (active) | 0.0615 µM (active) | – | 0.0352 µM (active) | < 0.01 µM (active) | 0.111 µM (active) | 0.0289 µM (active) | 0.048 µM (active) | 0.0735 µM (active) | 0.0336 µM (active) | 0.0228 µM (active) | 0.0339 µM (active) | < 0.0108 µM (active) | 0.124 µM (active) | 0.0607 µM (active) |
